Measured values taken from patent publication US12122854B2, “Graft copolymer and preparation method and use thereof” (ANHUI AGRICULTURAL UNIVERSITY, priority 2022, dated 2024).

Experiments:
[1] = ABTS free radical scavenging rate; format: biochemical; settings: 5 min
Experimental: The ABTS free radical scavenging rate of EPSF-starch was measured as follows: 100 mg of ABTS and 34.4 mg of potassium persulfate were dissolved in 25 mL of distilled water. They were shaken well, and stored at ambient temperature in dark for 12-16 hours.
EPSFs in Example 1 and EGCG in Comparative Example 1 were dispersed uniformly in methanol, obtaining dispersions with mass concentrations of 2 μg/mL, 4 μg/mL, 6 μg/mL, 8 μg/mL, 10 μg/mL and 12 μg/mL. The corn starch and EPSF-starch in Example 1, as well as the EGCG-starch in Comparative Example 1, were uniformly dispersed in methanol obtaining dispersions with mass concentrations of 0.156 mg/mL, 0.313 mg/mL, 0.625 mg/mL, 1.25 mg/mL, and 2.50 mg/mL. 1.0 mL of the above sample solutions and 3.0 mL of the ABTS free radical working solution were added to the test tube in sequence, and they were shaken well, and reacted at ambient temperature in dark for 5 minutes. The absorbance A1 thereof was measured at 734 nm. The sample solutions were replaced with methanol and the absorbance A0 thereof was measured according to the above method. EGCG, starch, and EGCG-starch functioned as control groups, and the ABTS free radical scavenging rates thereof were determined according to the above method. Experiment of each group was repeated three times, and the ABTS free radical scavenging rate of each sample was calculated according to Equation 2.
[formula] • where A0 represents the absorbance of a mixture of the sample dispersion and methanol; and A1 represents the absorbance of the sample dispersion and ABTS radical solution.

[2] = DPPH free radical scavenging rate; format: biochemical; settings: 30 min
Experimental: The scavenging rate of EPSF-starch on DPPH free radicals was measured as follows: The N-ethyl-2-pyrrolidinone-substituted flavan-3-ol (EPSF) in Example 1 and EGCG in Comparative Example 1 were uniformly dispersed in methanol separately, obtaining dispersions with mass concentrations of 2 μg/mL, 4 μg/mL, 6 μg/mL, 8 μg/mL, 10 μg/mL and 12 μg/mL. The corn starch and EPSF-starch in Example 1, as well as the EGCG-starch in Comparative Example 1, were uniformly dispersed in methanol to obtain dispersions with mass concentrations of 0.156 mg/mL, 0.313 mg/mL, 0.625 mg/mL, 1.25 mg/mL, and 2.50 mg/mL. 2 mL of the above sample dispersions were pipetted in sequence into test tubes, and 2.0 mL of a DPPH solution (0.2 mmol/L, which was prepared with methanol) was added thereto, respectively. The resulting mixture was shaken well, and reacted at ambient temperature in dark for 30 minutes. The absorbance A1 thereof was then measured at 517 nm. Meanwhile, DPPH solution was replaced with an equal amount of methanol solution, and the absorbance A2 thereof was measured according to the above method. The absorbance A0 of a mixture of 2.0 mL of methanol and 2.0 mL of DPPH solution was measured. Experiments of each group were repeated three times, and the DPPH free radical scavenging rate of EPSF-starch was calculated according to Equation 1.
[formula] • where A0 represents the absorbance of the mixture of methanol and DPPH solution; A1 represents the absorbance of a mixture of the sample dispersion and DPPH free radical solution; and A2 represents the absorbance of a mixture of the sample dispersion and methanol.

Question: What does the source list for epigallocatechin-3-gallate [EGCG]?
Answer: ABTS free radical scavenging rate ([1]; sample concentration 2 μg/mL in methanol): 51.91 ± 2.1%; ABTS free radical scavenging rate ([1]; sample concentration 4 μg/mL in methanol): 78.8 ± 1.73%; ABTS free radical scavenging rate ([1]; sample concentration 6 μg/mL in methanol): 91.49 ± 1.23%; ABTS free radical scavenging rate ([1]; sample concentration 8 μg/mL in methanol): 94.38 ± 2.07%; ABTS free radical scavenging rate ([1]; sample concentration 10 μg/mL in methanol): 95.17 ± 1.8%; ABTS free radical scavenging rate ([1]; sample concentration 12 μg/mL in methanol): 95.24 ± 1.69%; DPPH free radical scavenging rate ([2]; sample concentration 2 μg/ml in methanol): 21.57 ± 0.04%; DPPH free radical scavenging rate ([2]; sample concentration 4 μg/ml in methanol): 50.98 ± 0.25%; DPPH free radical scavenging rate ([2]; sample concentration 6 μg/ml in methanol): 67.85 ± 4%; DPPH free radical scavenging rate ([2]; sample concentration 8 μg/ml in methanol): 88.44 ± 0.27%; DPPH free radical scavenging rate ([2]; sample concentration 10 μg/ml in methanol): 85.67 ± 2.01%; DPPH free radical scavenging rate ([2]; sample concentration 12 μg/ml in methanol): 87.39 ± 2.62%; DPPH free radical scavenging rate ([2]; sample concentration 2.5 mg/ml in methanol): 90%
